Experimental data as given in patent US8247211B2, “Glycopeptide antibiotics” (American Cyanamid Company, priority 2001, dated 2012).
In brackets after ≈: the same amount, converted by molar mass. One block for each molecule: values may come before it.

How the values were obtained:
Assay in all cases: In vitro antibacterial evaluation: minimum inhibitory concentration (MIC), broth dilution method
Assay type in all cases: cell-based
Details in all cases: 18 hours at 35° C.
[1] = test system: Staphylococcus sp.
Outline: (§1)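 NCCLS M7-A2 broth dilution; Muller-Hinton II […]; 5×10^5 CFU/mL; 64-0.06 μg/mL. MIC = lowest concentration with no growth.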

[2] = test system: Escherichia coli
Outline: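 Susceptibility determined by NCCLS-recommended broth dilution (M7-A2), Muller-Hinton II […]. Concentration span 64-0.06 μg/mL, inoculum 5×10^5 CFU/mL. Isolates include strains resistant to methicillin, penicillin and/or vancomycin.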

[3] = test system: Streptococcus sp.
Outline: as §1

[4] = test system: Enterococcus sp.
Outline: as §1

[5] = Streptococcus agalactiae (GC 4564)
[6] = Streptococcus pneumoniae (ATCC 6301)
[7] = Streptococcus pneumoniae (GC 1894)
[8] = Streptococcus pneumoniae (GC 4565)
[9] = Streptococcus pyogenes (GC 4563)
[10] = broth dilution, inoculum 5×10^5 CFU/mL
[11] = Enterococcus faecalis (GC 2242)
[12] = Enterococcus faecalis (GC 2691)
[13] = Enterococcus faecalis (GC 3059)

MIC Coagulase Negative Staphylococcus (GC 4547) [1]: 2 µg/mL (≈ 1.35 µM)
MIC Coagulase Negative Staphylococcus (GC 4548) [1]: 0.5 µg/mL (≈ 0.338 µM)
MIC Coagulase Negative Staphylococcus (GC 4549) [1]: 0.5 µg/mL (≈ 0.338 µM)
MIC Coagulase Negative Staphylococcus (GC 4551) [1]: 2 µg/mL (≈ 1.35 µM)
MIC Coagulase Negative Staphylococcus (GC 6257) [1]: 1 µg/mL (≈ 0.677 µM)
MIC Staphylococcus aureus (ATCC 29213) [1]: 2 µg/mL (≈ 1.35 µM)
MIC Staphylococcus aureus (GC 1131) [1]: 2 µg/mL (≈ 1.35 µM)
MIC Staphylococcus aureus (GC 3051) [1]: 2 µg/mL (≈ 1.35 µM)
MIC Staphylococcus aureus (GC 3053) [1]: 2 µg/mL (≈ 1.35 µM)
MIC Staphylococcus aureus (GC 4541) [1]: 2 µg/mL (≈ 1.35 µM)
MIC Staphylococcus aureus (GC 4542) [1]: 4 µg/mL (≈ 2.71 µM)
MIC Staphylococcus aureus (GC 4544) [1]: 2 µg/mL (≈ 1.35 µM)
MIC Staphylococcus aureus (GC 4545) [1]: 2 µg/mL (≈ 1.35 µM)
MIC Staphylococcus aureus-SMITH (GC 4543) [1]: 2 µg/mL (≈ 1.35 µM)
MIC Escherichia coli (ATCC 25922) [2]: >64 µg/mL
MIC Escherichia coli (GC 4559) [2]: >64 µg/mL
MIC Escherichia coli (GC 4560) [2]: 1 µg/mL (≈ 0.677 µM)
MIC Streptococcus agalactiae (GC 4564) [3, 5]: 0.12 µg/mL (≈ 0.0812 µM)
MIC Streptococcus pneumoniae (ATCC 6301) [3, 6]: <0.06 µg/mL
MIC Streptococcus pneumoniae (GC 1894) [3, 7]: <0.06 µg/mL
MIC Streptococcus pneumoniae (GC 4565) [3, 8]: <0.06 µg/mL
MIC Streptococcus pyogenes (GC 4563) [3, 9]: <0.06 µg/mL
MIC Streptococcus agalactiae (GC 4564) [3, 10]: 0.12 µg/mL (≈ 0.0812 µM)
MIC Streptococcus pneumoniae (ATCC 6301) [3, 10]: <0.06 µg/mL
MIC Streptococcus pneumoniae (GC 1894) [3, 10]: <0.06 µg/mL
MIC Streptococcus pneumoniae (GC 4565) [3, 10]: <0.06 µg/mL
MIC Streptococcus pyogenes (GC 4563) [3, 10]: <0.06 µg/mL
MIC Enterococcus avium (GC 4558) [4]: 2 µg/mL (≈ 1.35 µM)
MIC Enterococcus faecalis (ATCC 29212) [4]: 4 µg/mL (≈ 2.71 µM)
MIC Enterococcus faecalis (GC 2242) [4, 11]: 4 µg/mL (≈ 2.71 µM)
MIC Enterococcus faecalis (GC 2691) [4, 12]: 2 µg/mL (≈ 1.35 µM)
MIC Enterococcus faecalis (GC 3059) [4, 13]: 2 µg/mL (≈ 1.35 µM)
MIC Enterococcus faecalis (GC 4552) [4]: 4 µg/mL (≈ 2.71 µM)
MIC Enterococcus faecalis (GC 4553) [4]: 4 µg/mL (≈ 2.71 µM)
MIC Enterococcus faecalis (GC 4554) [4]: 4 µg/mL (≈ 2.71 µM)
MIC Enterococcus faecalis (GC 6189) [4]: 2 µg/mL (≈ 1.35 µM)
MIC Enterococcus faecium (GC 2243) [4]: 4 µg/mL (≈ 2.71 µM)
MIC Enterococcus faecium (GC 4556) [4]: 4 µg/mL (≈ 2.71 µM)
MIC Enterococcus faecium (GC 4557) [4]: 2 µg/mL (≈ 1.35 µM)
MIC Enterococcus faecalis (GC 2242) [4, 10]: 4 µg/mL (≈ 2.71 µM)
MIC Enterococcus faecalis (GC 2691) [4, 10]: 2 µg/mL (≈ 1.35 µM)
MIC Enterococcus faecalis (GC 3059) [4, 10]: 2 µg/mL (≈ 1.35 µM)
SMILES: CC(c1ccccc1)C1NC(=O)CNC(=O)C(CO)NC(=O)C(C(O)C2CNC(=N)N2C2OC(CO)C(O)C(O)C2O)NC(=O)C(C(O)C2CNC(=N)N2)NC(=O)C(Cc2ccc(OC3OC(CO)C(OC4OC(COCc5ccc(Oc6ccccc6)cc5)C(O)C(O)C4O)C(O)C3O)cc2)NC1=O (stereo not drawn) [Example 236, Cyclo[glycyl-β-methylphenylalanyl-O-[4-O-[6-O-(4-phenoxybenzyl)hexopyranosyl]hexopyranosyl]tyrosyl-3-(2-iminoimidazolidin-4-yl)seryl-3-(3-hexopyranosyl-2-iminoimidazolidin-4-yl)serylseryl]]
MIC Staphylococcus haemolyticus (GC 4546) [1]: 2 µg/mL (≈ 1.35 µM)

MIC Coagulase Negative Staphylococcus (GC 4547) [1]: 2 µg/mL (≈ 1.4 µM)
MIC Coagulase Negative Staphylococcus (GC 4548) [1]: 1 µg/mL (≈ 0.698 µM)
MIC Coagulase Negative Staphylococcus (GC 4549) [1]: 1 µg/mL (≈ 0.698 µM)
MIC Coagulase Negative Staphylococcus (GC 4551) [1]: 4 µg/mL (≈ 2.79 µM)
MIC Coagulase Negative Staphylococcus (GC 6257) [1]: 1 µg/mL (≈ 0.698 µM)
MIC Staphylococcus aureus (ATCC 29213) [1]: 4 µg/mL (≈ 2.79 µM)
MIC Staphylococcus aureus (GC 1131) [1]: 4 µg/mL (≈ 2.79 µM)
MIC Staphylococcus aureus (GC 3051) [1]: 2 µg/mL (≈ 1.4 µM)
MIC Staphylococcus aureus (GC 3053) [1]: 4 µg/mL (≈ 2.79 µM)
MIC Staphylococcus aureus (GC 4541) [1]: 2 µg/mL (≈ 1.4 µM)
MIC Staphylococcus aureus (GC 4542) [1]: 8 µg/mL (≈ 5.58 µM)
MIC Staphylococcus aureus (GC 4544) [1]: 4 µg/mL (≈ 2.79 µM)
MIC Staphylococcus aureus (GC 4545) [1]: 2 µg/mL (≈ 1.4 µM)
MIC Staphylococcus aureus-SMITH (GC 4543) [1]: 2 µg/mL (≈ 1.4 µM)
MIC Escherichia coli (ATCC 25922) [2]: 64 µg/mL (≈ 44.6 µM)
MIC Escherichia coli (GC 4559) [2]: 64 µg/mL (≈ 44.6 µM)
MIC Escherichia coli (GC 4560) [2]: 1 µg/mL (≈ 0.698 µM)
MIC Streptococcus agalactiae (GC 4564) [3, 5]: 2 µg/mL (≈ 1.4 µM)
MIC Streptococcus pneumoniae (ATCC 6301) [3, 6]: 0.5 µg/mL (≈ 0.349 µM)
MIC Streptococcus pneumoniae (GC 1894) [3, 7]: 0.25 µg/mL (≈ 0.174 µM)
MIC Streptococcus pneumoniae (GC 4565) [3, 8]: 0.5 µg/mL (≈ 0.349 µM)
MIC Streptococcus pyogenes (GC 4563) [3, 9]: 1 µg/mL (≈ 0.698 µM)
MIC Streptococcus agalactiae (GC 4564) [3, 10]: 2 µg/mL (≈ 1.4 µM)
MIC Streptococcus pneumoniae (ATCC 6301) [3, 10]: 0.5 µg/mL (≈ 0.349 µM)
MIC Streptococcus pneumoniae (GC 1894) [3, 10]: 0.25 µg/mL (≈ 0.174 µM)
MIC Streptococcus pneumoniae (GC 4565) [3, 10]: 0.5 µg/mL (≈ 0.349 µM)
MIC Streptococcus pyogenes (GC 4563) [3, 10]: 1 µg/mL (≈ 0.698 µM)
MIC Enterococcus avium (GC 4558) [4]: 16 µg/mL (≈ 11.2 µM)
MIC Enterococcus faecalis (ATCC 29212) [4]: 16 µg/mL (≈ 11.2 µM)
MIC Enterococcus faecalis (GC 2242) [4, 11]: 16 µg/mL (≈ 11.2 µM)
MIC Enterococcus faecalis (GC 2691) [4, 12]: 16 µg/mL (≈ 11.2 µM)
MIC Enterococcus faecalis (GC 3059) [4, 13]: 32 µg/mL (≈ 22.3 µM)
MIC Enterococcus faecalis (GC 4552) [4]: 16 µg/mL (≈ 11.2 µM)
MIC Enterococcus faecalis (GC 4553) [4]: 16 µg/mL (≈ 11.2 µM)
MIC Enterococcus faecalis (GC 4554) [4]: 32 µg/mL (≈ 22.3 µM)
MIC Enterococcus faecalis (GC 6189) [4]: 16 µg/mL (≈ 11.2 µM)
MIC Enterococcus faecium (GC 2243) [4]: 16 µg/mL (≈ 11.2 µM)
MIC Enterococcus faecium (GC 4556) [4]: 16 µg/mL (≈ 11.2 µM)
MIC Enterococcus faecium (GC 4557) [4]: 4 µg/mL (≈ 2.79 µM)
MIC Enterococcus faecalis (GC 2242) [4, 10]: 16 µg/mL (≈ 11.2 µM)
MIC Enterococcus faecalis (GC 2691) [4, 10]: 16 µg/mL (≈ 11.2 µM)
MIC Enterococcus faecalis (GC 3059) [4, 10]: 32 µg/mL (≈ 22.3 µM)
SMILES: COc1ccc(COCC2OC(OC3C(CO)OC(Oc4ccc(CC5NC(=O)C(C(C)c6ccccc6)NC(=O)CNC(=O)C(CO)NC(=O)C(C(O)C6CNC(=N)N6C6OC(CO)C(O)C(O)C6O)NC(=O)C(C(O)C6CNC(=N)N6)NC5=O)cc4)C(O)C3O)C(O)C(O)C2O)cc1F (centres unmarked) [Example 237]
MIC Staphylococcus haemolyticus (GC 4546) [1]: 1 µg/mL (≈ 0.698 µM)
